Reference: patent publication US12076331B2, “Inositol derivatives for use in pathological crystallization” (ETH Zurich, priority 2015, dated 2024)
Entries after “also recorded” stand apart in the source; their conditions may differ.

What was measured:
[1] = system: transition of primary CPPs to secondary CPPs; test: CPP maturation time in human serum, similar test with test compounds added last (FIG. 2); details: test compounds added to the reaction mixture last
Method: (§1) The inventors performed an in vitro assay that measures the propensity for calcification of human serum and has been clinically validated as a predictor of all-cause mortality in CKD patients and renal transplant recipients (as described in Pasch, Journal of the American
Society of Nephrology 23, 1744-1752, 2012). […], and the transition time of primary to secondary CPPs was measured at 37° C. using a nephelometer for up to 600 minutes.

[2] = In-solution screening of CaP precipitation and aggregation in artificial renal tubular fluid (RTF); type: physicochemical; details: 9 mM phosphate, 8 mM calcium, 4 h
Method: (§2) Effects of (A) OEG2-IP5, (B) OEG11-IP5, (C) (OEG2)2-IP4, (D) (OEG11)2-IP4 and (E) OEG8-(IP5)2. on CaP precipitation in RTF spiked with 9 mM disodium phosphate and 8 mM calcium chloride were assessed by light microscopy followed by automated image analysis at t=4 h. Quantification of the total area covered with CaP precipitates/total area field of view (N=3, mean+SD, normalized to the control).
as §2, with “mean size of aggregates/field” for “total area covered with CaP precipitates/total area field”, “view normalized to the ctrl” for “view”
Overview table showing the minimal concentration of compound (FIG. 3 for the chemical structures) required to achieve complete inhibition of CaP precipitation (total area covered with crystals <10% of total area control); and minimal concentration required to prevent CaP crystal aggregation in the CaP screening assay (CaP aggregate size <50% of aggregate size control) (N=3).
An artificial renal tubular fluid (RTF) with a final composition of 0.05 mM oxalate, 0.005 mM sulphate, 408 mM sodium, 424 mM chloride, 0.26 mM potassium, 4 mM magnesium and 0.2 mM citrate in double distilled water was prepared according to a literature report (Fasano, J. M. et al., Kidney Int. 59, 169-178. DOI: 10.1046/j. 1523-1755.2001.00477.x, 2001). The solution was filtered with a 0.45-μm syringe filter. Twenty mM Bis-Tris buffer was added to the reported protocol to ensure pH stability throughout experiments and pH was set to 7.2. The artificial RTF was stored at room temperature for up to four months. Stock solutions of 0.25 M phosphate and 1 M calcium were prepared in double distilled water and were stored separately at −20° C.
Twenty-x final concentration phosphate, 20× final concentration calcium and 10× final concentration compound dilutions were prepared in RTF. Assay mixture consisting of 80% RTF, 10% compound dilution, 5% phosphate dilution and 5% calcium dilution was prepared in Eppendorf tubes as follows. RTF (320 μL) was mixed with 20 μL phosphate dilution (final concentration of 9 mM), 40 μL compound dilution and 20 μL calcium dilution (final concentration of 8 mM). The assay mixture was vortexed after adding each component and 380 μL of the mixture were immediately added to 8-well glass bottom slides and incubated for 4 hat RT. CaP precipitation was assessed using a Leica DM 6000B microscope (Leica Microsystems, Wetzlar, Germany) in brightfield mode. For quantification 3 wells/condition with 3-4 images/well were imaged with a 40× objective. The total area covered with CaP deposits in percentage of the field of view and the mean size of CaP aggregates were determined.
In a first step, the influence of selected IP6 analogues (FIG. 5) on CaP precipitation and growth was assessed in vitro using artificial renal tubular fluid (RTF) (Table 1). In a previous study, the inventors investigated CaP protein particle formation in serum. However, an important difference to cardiovascular calcification lies in the extremely low protein content of the renal tubular fluid vs. the high abundance of proteins in blood, which can stabilize amorphous particles. Two cut-offs were chosen for assessing efficacy. First, complete inhibition was defined as a >90% reduction of detected CaP precipitates compared to the control sample without compound. Second, inhibition of CaP aggregation was defined as a >50% reduction of the mean size of aggregates when compared to the control.

[3] = system: transition of primary CPPs to secondary CPPs; test: calciprotein particle (CPP) maturation time in human serum (Pasch test, FIG. 1); details: human pooled serum, 37° C., nephelometer up to 600 minutes
Description: The y-axis indicates the half-maximal transition time (T50) in minutes of primary CPPs to secondary CPPs. IP6: myo-inositol hexakisphosphate (Biosynth); IS6: myo-inositol hexakissulfate (Sigma); IP2S4: 4,6-di-(O-phosphate)-myo-inositol 1,2,3,5-tetra-O-sulfate; IT2S4: 4,6-di-(O-thiophosphate)-myo-inositol 1,2,3,5-tetra-O-sulfate; IP5-PEG: 2-PEG(2000)-myo-inositol pentakisphosphate.
as §1
Society of Nephrology 23, 1744-1752, 2012). The experiment was carried out by mixing a calcium solution, human pooled serum, the test compound at the final concentration indicated and a phosphate solution, and the transition time of primary to secondary CPPs was measured at 37° C. using a nephelometer for up to 600 minutes.

[4] = system: RPTEC/TERT 1 human proximal tubule cells; test: Imaging assay of CaP adhesion/deposition and cellular changes on RPTEC monolayers; type: cell-based; details: RPTEC, 7 mM phosphate, 5 mM calcium, 24 h
Description: (A) Heatmap and hierarchical clustering of extracted image features. (B) Selected single features describing cellular changes upon increasing (OEG2)2-IP4 concentrations are depicted. Total cell count, dead cell count, single cell area and single cell solidity, a measure of cell compactness, are shown. (C) Selected single features describing changes in the CaP deposition and membrane pattern upon increasing (OEG2)2-IP4 concentrations are depicted. The total area of the binary calcein staining, colorimetric quantification of calcium content extracted from the monolayer, the maximum intensity of the calcein fluorescence, structural similarity index metric (SSIM) and the correlation of the CellMask channel image are shown. (D) Example brightfield, calcein, CellMask and EthD channel images and two zoomed-in regions of interests (ROI) of RPTEC treated with 13 μM (OEG2)2-IP4 are shown. Mean scaled values per individual experiment are plotted (N=3). Pos.ctrl presents treatment with 5/7 mM Ca/P, neg.ctrl presents medium without Ca/P spiking (=1/1 mM Ca/P present in normal cell medium). Mean of three individual experiments and SD is plotted as grey horizontal and vertical line respectively, one-way ANOVA with Dunnet's multiple comparison between each concentration to pos. ctrl was performed (* p<0.01).
RPTEC/TERT 1 monolayers at confluence were treated with medium spiked with 7 mM disodium phosphate, 5 mM calcium chloride and compound and were incubated for 24 h. The amount of CaP deposits and the extent of cell injury were detected by calcein and EthD staining, respectively. Fluorescence images were quantified using Matlab. Quantification of the area covered with CaP deposition on RPTEC monolayers with (A) OEG2-IP5, (B) OEG11-IP5, (C) (OEG2)2-IP4, and (D) OEG8-(IP5)2 treatment. (N=3, mean+SD, one-way ANOVA with Dunnett's multiple comparison, * p<0.05, ** p<0.01, *** p<0.001).
RPTEC/TERT 1 human proximal tubule cells (RPTEC) were cultured in T75 tissue culture flasks using ProxUp basal medium mixed with ProxUp supplements at 37° C. and 5% CO2 according to manufacturer's recommendations. Cells were used up to passage 30 and regularly tested for Mycoplasma infections. For experiments, RPTEC were cultured in 24-well plates at a seeding density of 150′000 cells/cm^2. Cell viability assessment and cell counting before seeding was performed using an automated cell counter (BioRad TC 20, Hercules, CA, USA).
For the comparison of selected IP6 analogues, ProxUp basal medium was prepared with the selected inhibitor and added to each well. Then, CaP precipitation was induced by direct addition of first, phosphate and second, calcium. Final concentrations of 7 mM phosphate and 5 mM calcium were used. Cells were incubated for 24 h at 37° C. and 5% CO2. Spiked medium was removed, and cells were washed twice with PBS before staining.
For staining, ProxUp basal medium was mixed with calcein (500 nM final concentration), EthD (6 μM final concentration), CellMask stain ([…]) and Hoechst 33342. Staining mixture was added to RPTEC and cells were incubated for 30 min in the dark at 37° C. and 5% CO2. Staining solution was removed, cells were washed with PBS once and ProxUp basal medium was added. Cells were immediately imaged after staining. Images were obtained by epifluorescence microscopy at 37° C., using a Leica CTR6000 microscope. For quantification 3 wells/condition were prepared and 3 images/well were taken. For preliminary adhesion experiments images were taken with a 10× objective, for the imaging assay 20× objective images were taken.
Multichannel images were saved as individual channel images in 8-bit tiff format. For analysis Hoechst channel images were thresholded using the triangle threshold. Touching nuclei of the binary image were further segmented using the watershed algorithm with the distance transform of the binary image as input and local maxima thereof as seeds. […]

## COCCOCCO[C@@H]1C(OP(=O)(O)O)[C@H](OCCOCCOC)[C@@H](OP(=O)(O)O)C(OP(=O)(O)O)[C@H]1OP(=O)(O)O (stereo partly shown) [INS-3001]
[1]
  activity on transition time of primary to secondary CPPs: more active than IP6; also recorded: more active than the compounds having one PEG moiety

## O=P(O)(O)OC1[C@@H](OP(=O)(O)O)[C@H](OP(=O)(O)O)C(O)[C@H](OP(=O)(O)O)[C@H]1OP(=O)(O)O (stereo partly shown) [IP5, myo-inositol pentakisphosphate, reference compound]
[2]
  concentration at which CaP precipitation was promoted: 30 µM

## 2-PEG(2000)-myo-inositol pentakisphosphate [Compound 2-PEG-IP5]
[3]
  activity on half-maximal transition time (T50) of primary CPPs to secondary CPPs: far more active than any other compound

## O=S(=O)(O)OC1C(OS(=O)(=O)O)C(OS(=O)(=O)O)C(OS(=O)(=O)O)C(OS(=O)(=O)O)C1OS(=O)(=O)O (stereo not shown) [IS6, myo-inositol hexakissulfate, reference compound]
[2]
  effect on CaP precipitation/crystallization in words: weak inhibitory properties

## O=P(O)(O)OC1C(OS(=O)(=O)O)C(OP(=O)(O)O)C(OS(=O)(=O)O)C(OS(=O)(=O)O)C1OS(=O)(=O)O (stereo not shown) [IP2S4, 4,6-di-(O-phosphate)-myo-inositol 1,2,3,5-tetra-O-sulfate]
[3]
  activity on half-maximal transition time (T50) of primary CPPs to secondary CPPs: more active than IP6

## cyclohexane hexacarboxylic acid [IC6, reference compound]
[2]
  effect on CaP precipitation/crystallization in words: weak inhibitory properties

## O=S(=O)(O)O[C@@H]1[C@@H](OP(O)(O)=S)[C@H](OS(=O)(=O)O)[C@H](OS(=O)(=O)O)[C@H](OS(=O)(=O)O)[C@H]1OP(O)(O)=S [IT2S4, 4,6-di-(O-thiophosphate)-myo-inositol 1,2,3,5-tetra-O-sulfate]
[3]
  activity on half-maximal transition time (T50) of primary CPPs to secondary CPPs: more active than IP6

## COCCOCCOCCOCCOCCOCCOCCOCCOCCOCCOCCO[C@@H]1[C@@H](OP(=O)(O)O)[C@H](OP(=O)(O)O)[C@@H](OP(=O)(O)O)[C@@H](OP(=O)(O)O)[C@H]1OP(=O)(O)O [OEG11-IP5]
[2]
  aggregation inhibitory concentration: 300 nM
[4]
  concentration achieving complete inhibition of CaP adhesion: 50 µM

## COCCOCCO[C@@H]1[C@@H](OP(=O)(O)O)[C@H](OP(=O)(O)O)[C@@H](OP(=O)(O)O)[C@@H](OP(=O)(O)O)[C@H]1OP(=O)(O)O [OEG2-IP5]
[2]
  concentration for complete inhibition of CaP precipitation (>90% reduction of CaP precipitates vs control): 30 µM
  concentration for inhibition of CaP aggregation (>50% reduction of mean size of aggregates vs control): 1 µM
[4]
  concentration achieving complete inhibition of CaP adhesion: 50 µM

## O=P(O)(O)O[C@H]1[C@H](OP(=O)(O)O)[C@@H](OP(=O)(O)O)[C@H](OP(=O)(O)O)[C@@H](OP(=O)(O)O)[C@H]1OP(=O)(O)O [IP6, myo-inositol hexakisphosphate, reference compound]
[2]
  concentration at which CaP precipitation was promoted: 10 µM
